From patent US5352680A, “Delta opioid receptor antagonists to block opioid agonist tolerance and dependence” (priority 1992, dated 1994)
Read-outs that look alike come from different tables or passages of the source.

Key:
mu opioid receptor [1] = settings: rats; cited from earlier work
mu opioid receptor [2] = settings: monkeys; cited from earlier work
mu opioid receptor [3] = settings: dose used by DeLander et al.; cited from earlier work
[4] = test system: development of physical dependence in mice treated acutely with morphine; format: in vivo, mice (male Swiss-Webster)
[5] = test system: development of physical dependence in mice treated chronically with morphine; assay: Naloxone-induced withdrawal jumping: physical dependence, mice treated chronically with morphine; format: in vivo, mice (male Swiss-Webster); settings: with morphine pellet
Method: (§1) Male Swiss-Webster mice (BioLab, White Bear Lake, Minn.) weighing 20 to 25 g were used. The mice were rendered tolerant to and dependent on morphine by s.c. implantation of one morphine pellet (75 mg free base)/mouse for 3 days according to the procedure of E. L. Way et al., J. Pharmacol. Exp. Ther., 167, 1 (1969). Control animals were implanted with placebo pellets. Mice were anesthetized lightly with methoxyflurane during the implantation process. […] Chem. Pathol. Pharmacol., 16, 721 (1977).
(§2) Mice were implanted with a single placebo (control) or morphine pellet (75 mg free base) for 3 days. NTI (10 pmol/mouse) was administered i.c.v. 90 min before and 24 and 48 hr after the morphine pellet implantation. 5'-NTII (10 nmol/mouse) was administered 24 hr before, at the same time as and 24 and 48 hr after the morphine pellet implantation.

mu opioid receptor [6] = settings: shown previously; cited from earlier work
antinociceptive activity = assay: Antinociceptive activity of the antagonist itself; format: in vivo, mice; settings: for antinociceptive activity: mouse, in vivo
delta opioid receptor = assay: Delta antagonist potency/selectivity comparison (one assay)
kappa opioid receptor [7] = settings: shown previously; cited from earlier work
[8] = test system: development of morphine tolerance in mice treated acutely with morphine; format: in vivo, mice (male Swiss-Webster); settings: NTI 10 pmol/mouse i.c.v.; morphine sulfate 100 mg/kg s.c.
mu opioid receptors = assay: Effect on antinociceptive activity of the mu agonist DAMGO; format: in vivo, mice (male Swiss-Webster); settings: NTI 10 pmol/mouse, once or twice; 5'-NTII 10 nmol/mouse 24 hr before DAMGO
Method: (§3) NTI (10 pmol/mouse) was administered 100 min before the i.c.v. injection of DAMGO and 20 min later, at the peak effect of DAMGO, the antinociceptive activity of the peptide was assessed. In another group of mice, NTI (10 pmol/mouse) was administered twice, once at 100 min before and again at the same time as the i.c.v. injection of DAMGO. 5'-NTII (10 nmol/mouse) was administered 24 hr before being tested with DAMGO.

[9] = test system: development of morphine tolerance in mice treated chronically with morphine; format: in vivo, mice (male Swiss-Webster); settings: for increase of the ED50 of morphine sulfate vs control animals: antagonist together with morphine pellets; for effect on development of tolerance: with morphine pellets
Method: as §1
At least 30 mice (10/group) and three to four dose levels were used to determine each ED50 value.
The ED50 values of morphine and their 95% CL were determined by the parallel line assay of D. J. Finney, Statistical Methods in Biological Assay, Hafner Pub. Co., N.Y. (2d ed. 1969) with the aid of a computer program which has the capability to analyze at the same time 12 lines (dose-response curves) and 6 points (dose levels) per line with log and probit transformations and 35 repetitions per point.
as §2

delta opioid receptors [10] = settings: shown previously; cited from earlier work
delta opioid receptors [11] = molecular target: T1, delta opioid receptors (Mus musculus, UniProt P32300); assay: Antagonism of delta opioid receptor agonists (DSLET) in vivo; parameters: species or system mice
T1 construct: from tissue; host or cells: living mouse, intracerebroventricular dosing (endogenous receptor)

kappa opioid receptor [12] = assay: Antagonism of kappa opioid receptor agonists; format: in vivo; settings: 10 nmol/mouse i.c.v., 24 hours
mu opioid receptor [13] = assay: Antagonism of mu opioid receptor agonists; format: in vivo; settings: 10 nmol/mouse i.c.v., 24 hours
Method: as §3

delta opioid receptors [14] = molecular target: T1, delta opioid receptors; settings: previously reported; cited from earlier work

T1 sequence (P32300 whole entry): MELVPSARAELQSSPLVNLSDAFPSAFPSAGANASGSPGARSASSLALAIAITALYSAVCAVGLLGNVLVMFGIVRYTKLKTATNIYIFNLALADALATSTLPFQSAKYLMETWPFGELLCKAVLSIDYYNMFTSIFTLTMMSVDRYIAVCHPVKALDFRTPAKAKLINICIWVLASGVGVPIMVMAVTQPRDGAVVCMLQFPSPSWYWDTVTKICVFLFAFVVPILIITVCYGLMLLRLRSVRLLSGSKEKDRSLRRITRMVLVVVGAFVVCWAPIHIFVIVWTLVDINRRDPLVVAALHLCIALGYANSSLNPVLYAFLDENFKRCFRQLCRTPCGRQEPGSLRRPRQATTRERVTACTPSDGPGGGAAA

SMILES | effect on development of physical dependence [5] | effect on activity of mu opioid receptor agonists (mu opioid receptor [6]) | antinociceptive activity (antinociceptive activity) | effect on activity of kappa opioid receptor agonists (kappa opioid receptor [7]) | effect on the antinociceptive activity of DAMGO (mu opioid receptors) | increase of the ED50 of morphine sulfate vs control animals [9] | effect on development of tolerance [9] | antagonism of delta opioid receptor agonists (delta opioid receptors [10]) | further results
COC(=O)/C=C/C(=O)N[C@@H]1CC[C@@]2(O)[C@H]3Cc4ccc(O)c5c4[C@@]2(CCN3CC2CC2)[C@H]1O5 [β-FNA, β-funaltrexamine] | – | – | – | – | – | – | – | – | effect on development of morphine tolerance and dependence (mu opioid receptor [1]): inhibit the development of morphine tolerance and dependence in rats; withdrawal signs (mu opioid receptor [2]): induce long-lasting withdrawal signs in monkeys; effect on morphine-induced antinociception (mu opioid receptor [3]): significantly inhibited morphine-induced antinociception
Oc1ccc2c3c1O[C@H]1c4[nH]c5ccccc5c4C[C@@]4(O)[C@@H](C2)N(CC2CC2)CC[C@]314 [NTI, 17-(cyclopropylmethyl)-6,7-dehydro-3,14β-dihydroxy-4,5α-epoxy-6,7-2',3'-indolmorphinan] | suppressed the development of dependence substantially | minimal or no effect | possesses antinociceptive activity | minimal or no effect | neither NTI nor 5'-NTII, at the dosages and injection protocol used, altered the anti-nociceptive activity of DAMGO | 2 fold | the development of tolerance was suppressed substantially | highly effective antagonists against the activity of delta opioid receptor agonists | times more naloxone required to precipitate withdrawal jumping ([4]; pretreated twice with NTI before inducing dependence): 45 times; times more naloxone required to precipitate withdrawal jumping ([4]; single dose of NTI 90 min before or at same time as 100 mg/kg morphine sulfate): about 10 times; maximum dose with selective antagonism at delta opioid receptors without detection of antinociceptive activity (antinociceptive activity; i.c.v.): 10 pmol/mouse; potency relative to ICI 174864 (delta opioid receptor; vs peptide delta antagonist ICI 174864): at least 500 times; selectivity relative to M8008 (delta opioid receptor; vs structurally unrelated opiate M8008): more selective than the structurally unrelated opiate M8008; effect on development of acute tolerance [8]: completely prevented the development of acute tolerance; duration of antagonist activity against delta opioid receptor agonists (delta opioid receptors [11]; NTI, b221: against the antinociceptive effect of DSLET): 18 to 24 h
Oc1ccc2c3c1O[C@H]1c4[nH]c5ccc(N=C=S)cc5c4C[C@@]4(O)[C@@H](C2)N(CC2CC2)CC[C@]314 [5'-NTII, naltrindole 5'-isothiocyanate] | appeared to block it completely | minimal or no effect | without any antinociceptive activity | minimal or no effect | neither NTI nor 5'-NTII, at the dosages and injection protocol used, altered the anti-nociceptive activity of DAMGO | 3 fold | the development of tolerance was suppressed substantially | highly effective antagonists against the activity of delta opioid receptor agonists | effect on ED50s of kappa opioid receptor agonists (kappa opioid receptor [12]): without affecting the ED50 s of mu or kappa opioid receptor agonists; effect on ED50s of mu opioid receptor agonists (mu opioid receptor [13]): without affecting the ED50 s of mu or kappa opioid receptor agonists; duration of action against delta agonists (delta opioid receptors [14]): more than 48 hr; selectivity for delta opioid receptors (delta opioid receptors [11]; 10 nmol/mouse i.c.v.): high selectivity for delta opioid receptors; increase of ED50 of DSLET (delta opioid receptors [11]; 24 hours after 10 nmol/mouse i.c.v.): 50 fold
